Source: ChEMBL document CHEMBL1201862, “PubChem BioAssay data set” (2004)
Active and inactive are the calls of the source.

Key:
[1] = target: T1, Coagulation factor XII (Homo sapiens, UniProt P00748); assay: Factor XIIa Dose Response Confirmation from Single Well HTS. [Related pubchem assays (depositor defined):AID701]; type: functional
T1 sequence (P00748 whole entry): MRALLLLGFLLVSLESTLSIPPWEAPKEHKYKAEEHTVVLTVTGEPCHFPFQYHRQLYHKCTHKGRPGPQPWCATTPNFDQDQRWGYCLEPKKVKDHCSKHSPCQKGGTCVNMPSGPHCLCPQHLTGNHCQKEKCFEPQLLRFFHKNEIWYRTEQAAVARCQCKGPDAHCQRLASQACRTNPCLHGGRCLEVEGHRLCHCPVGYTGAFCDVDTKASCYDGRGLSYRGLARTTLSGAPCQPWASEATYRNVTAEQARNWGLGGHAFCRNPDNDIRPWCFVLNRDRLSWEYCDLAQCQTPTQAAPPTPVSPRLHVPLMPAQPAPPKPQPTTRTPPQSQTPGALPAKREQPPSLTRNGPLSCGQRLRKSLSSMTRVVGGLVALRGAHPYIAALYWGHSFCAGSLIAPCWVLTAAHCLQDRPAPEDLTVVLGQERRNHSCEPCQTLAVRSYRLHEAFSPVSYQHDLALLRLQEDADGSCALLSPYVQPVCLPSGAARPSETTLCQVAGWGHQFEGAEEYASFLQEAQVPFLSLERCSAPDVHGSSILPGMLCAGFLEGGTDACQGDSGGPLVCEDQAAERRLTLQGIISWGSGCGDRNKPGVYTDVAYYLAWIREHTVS

[2] = target: Troponin, cardiac muscle (Homo sapiens, UniProt P19429+P45379+P63316); assay: Fluorescence-based biochemical high throughput dose response assay for activators of the calcium sensitivity of cardiac Regulated Thin Filaments (RTF). [Related pubchem assays (depositor defined):AID493008, AID493018, AID504382, AID504383]; type: protein-complex assay
[3] = target: T2, Runt-related transcription factor 1/Core-binding factor subunit beta (Homo sapiens, UniProt Q01196+Q13951); assay: Runt domain/CBFb-SMMHC interaction disruptors – biochemical, TR-FRET (AID 1438); type: protein assay
[4] = target: T2, Runt-related transcription factor 1/Core-binding factor subunit beta; assay: Confirmation of compounds inhibiting the binding between the RUNX1 Runt domain and CBFb-SMMHC via a fluorescence resonance energy transfer (FRET) assay. [Related pubchem assays (depositor defined):AID1434, AID1438, AID1496, AID1550, AID1645]; type: protein assay
[5] = target: Genome polyprotein (dengue virus type 2, UniProt P29990); assay: flavivirus cap methylation enzyme inhibition – biochemical, confirmation dose response, primary screen (AID 588689); type: functional
[6] = target: T3, Heat shock factor protein 1 (Mus musculus, UniProt P38532); assay: enhancement of HSF1-driven luciferase signal – cell-based, NIH3T3, luminescence, dose retest, confirmation (AID 435004); type: functional;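 also: stress induced by proteasome inhibitor MG132 added 30 min after compound; luciferase reporter driven by HSF1 response element in NIH3T3 cells; actives raise luminescence as potentiators of the MG132 stress response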
T3 sequence (P38532 whole entry): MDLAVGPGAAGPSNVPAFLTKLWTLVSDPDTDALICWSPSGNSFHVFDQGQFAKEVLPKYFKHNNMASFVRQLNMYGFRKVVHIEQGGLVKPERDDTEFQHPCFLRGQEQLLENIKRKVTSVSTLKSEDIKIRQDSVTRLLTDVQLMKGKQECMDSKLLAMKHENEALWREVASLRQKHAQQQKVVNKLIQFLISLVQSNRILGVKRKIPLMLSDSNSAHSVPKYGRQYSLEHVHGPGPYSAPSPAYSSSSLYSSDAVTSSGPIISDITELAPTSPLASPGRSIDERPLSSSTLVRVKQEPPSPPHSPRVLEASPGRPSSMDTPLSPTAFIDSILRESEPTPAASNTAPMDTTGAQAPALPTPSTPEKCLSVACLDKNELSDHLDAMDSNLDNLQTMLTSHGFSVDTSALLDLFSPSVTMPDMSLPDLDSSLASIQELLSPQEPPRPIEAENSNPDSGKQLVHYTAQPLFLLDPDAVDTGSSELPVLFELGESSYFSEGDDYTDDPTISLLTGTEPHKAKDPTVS

[7] = target: T2, Runt-related transcription factor 1/Core-binding factor subunit beta; assay: Confirmation of compounds inhibiting the binding between the RUNX1 Runt domain and CBFb-SMMHC via a time resolved fluorescence resonance energy transfer (TR-FRET) assay. [Related pubchem assays (depositor defined):AID1434, AID1438, AID1496, AID1560, AID1645]; type: protein assay
[8] = target: G-protein coupled receptor 55 (Homo sapiens, UniProt Q9Y2T6); assay: selective activators of receptor GPR55 – imaging, U2OS cells, beta-arrestin-GFP redistribution, primary screen (AID 1961); type: functional
[9] = target: Heat shock protein HSP 90-alpha (Homo sapiens, UniProt P07900); type: functional, organism-based
[10] = target: T2, Runt-related transcription factor 1/Core-binding factor subunit beta; assay: disruptors of Runt domain/CBFb-SMMHC interaction – biochemical, FRET, Cerulean-Runt, Venus-CBFb-SMMHC, uHTS, […] (AID 1434); type: protein assay
[11] = target: Dual specificity protein phosphatase 3 (Homo sapiens, UniProt P51452); assay: SAR VHR1 Fluorescent Assay for In Vitro dose response studies Set 2. [Related pubchem assays (depositor defined):AID1654, AID1661, AID1878]; type: functional
[12] = target: T4, Tyrosine-protein phosphatase non-receptor type 7 (Homo sapiens, UniProt P35236); assay: SAR analysis of chemical inhibitors of HePTP using a Fluorescent assay - Set 2. [Related pubchem assays (depositor defined):AID1059, AID1077, AID1661, AID2085, AID521]; type: functional
T4 sequence (P35236 whole entry): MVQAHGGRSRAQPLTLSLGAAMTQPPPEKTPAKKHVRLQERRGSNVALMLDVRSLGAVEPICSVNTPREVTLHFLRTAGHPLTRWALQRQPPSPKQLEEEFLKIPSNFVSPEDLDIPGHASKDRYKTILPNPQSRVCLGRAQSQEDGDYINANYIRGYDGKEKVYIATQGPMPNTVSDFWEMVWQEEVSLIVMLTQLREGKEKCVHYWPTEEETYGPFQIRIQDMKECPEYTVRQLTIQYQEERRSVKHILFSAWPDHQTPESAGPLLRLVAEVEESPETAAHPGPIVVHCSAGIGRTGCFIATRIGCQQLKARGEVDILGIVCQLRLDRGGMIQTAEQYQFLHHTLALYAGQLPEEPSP

[13] = target: T5, CAAX prenyl protease 2 (Homo sapiens, UniProt Q9Y256); assay: inhibition of Ras-converting CAAX protease Rce1 – biochemical, yeast membranes, quenched-peptide fluorescence, cherry-pick, dose response (AID 588849)
T5 sequence (Q9Y256 whole entry): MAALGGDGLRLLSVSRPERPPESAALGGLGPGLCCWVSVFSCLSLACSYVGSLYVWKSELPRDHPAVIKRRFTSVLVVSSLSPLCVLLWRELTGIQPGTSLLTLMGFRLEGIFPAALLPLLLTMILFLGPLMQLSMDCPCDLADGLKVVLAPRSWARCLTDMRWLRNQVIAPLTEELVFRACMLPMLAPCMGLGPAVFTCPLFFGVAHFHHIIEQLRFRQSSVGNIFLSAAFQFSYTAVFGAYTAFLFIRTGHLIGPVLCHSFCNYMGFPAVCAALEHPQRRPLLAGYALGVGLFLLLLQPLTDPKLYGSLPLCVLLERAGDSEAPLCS

[14] = target: CAAX prenyl protease 2 (Saccharomyces cerevisiae S288c, UniProt Q03530); type: biochemical
[15] = target: Integrin alpha-4 (Homo sapiens, UniProt P13612); assay: allosteric modulators of alpha4 integrin VLA-4 – cell-based, LIBS antibody binding, flow cytometry, SAR follow-up (AID 488791); type: functional
[16] = target: T6, Ubiquitin-conjugating enzyme E2 N (Homo sapiens, UniProt P61088); type: functional;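 also: Dose-response confirmation in a TR-FRET assay detecting UBC13-driven polyubiquitin chain formation, inhibition measured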
T6 sequence (P61088 whole entry): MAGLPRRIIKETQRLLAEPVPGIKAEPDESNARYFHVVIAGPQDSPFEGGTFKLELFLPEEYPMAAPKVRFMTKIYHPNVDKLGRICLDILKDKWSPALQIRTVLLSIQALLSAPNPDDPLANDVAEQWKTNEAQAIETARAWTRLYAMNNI

[17] = Luminescence Cell-Based Dose Retest to Confirm Inhibitors of Cancer Stem Cells. [Related pubchem assays (depositor defined):AID2717, AID2721]; type: functional, Homo sapiens; settings: Homo sapiens
[18] = target: Dual specificity tyrosine-phosphorylation-regulated kinase 1A (Rattus norvegicus, UniProt Q63470); type: biochemical, Homo sapiens

CC1=CC(=NOC(=O)c2cccc([N+](=O)[O-])c2)C=C(C)C1=O
IC50 [1]: 1.94 µM (active)

CC1=CC(=C(C#N)C#N)C=C(C)N1Cc1ccc(Cl)cc1
EC50 [2]: > 71.5 µM (inactive)

O=C1C=CC(=O)N1N(c1ccccc1)c1ccccc1
IC50 [3]: 21.4 µM (active)
IC50 [4]: 10.3 µM (active)
IC50 [5]: 41.6 µM (active)
EC50 [6]: 4.95 µM (active)
IC50 [7]: 16.5 µM (active)
EC50 [8]: > 32 µM (inactive)
AC50 [9]: 4.16 µM (active)
IC50 [10]: 10.1 µM (active)

COc1ccc(N2CCN(C(=O)Nc3ccc(S(N)(=O)=O)cc3)CC2)cc1
IC50 [11]: > 100 µM (inactive)
IC50 [12]: 51 µM (active)

CN1c2ccccc2-c2nc3ccccc3n2C1c1ccncc1 (stereo not drawn)
AC50 [13]: 2.65 µM (active)
AC50 [14]: 68.9 µM (active)

COc1cccc(-c2sc3ccccc3c2-c2ccc(OCCN3CCCC3)cc2)c1
EC50 [15]: > 42.9 µM (inactive)
IC50 [16]: > 20 µM (inactive)
AC50 [17]: 2.58 µM (active)
AC50 [18]: 49.2 µM (active)
